# Assay results from patent US20050003449A1, “Method for determining molecular affinities for human serum albumin” (priority 2003, published 2005).
# Legend:
# [1] = biological target: T1, HSA (V) (Homo sapiens, UniProt P02768); assay: Isothermal titration calorimetry of the probe with HSA; assay type: binding; settings: ITC, PBS
# T1 construct: Human serum albumin, fraction V, with a purity ≧95% as indicated by cellulose acetate electrophoresis; purchased Calbiochem 12666
# Experimental: The bottom plot represents the isothermal titrating calorimetry results integrated enthalpies and least-squares curve fit for the probe interaction with HSA (V) in PBS.
# Isothermal titration calorimetry experiments were performed using an OMEGA titrating microcalorimeter from Microcal, Inc. (Northampton, Mass.). Data collection, analysis, and plotting were performed using a Windows-based software package (Origin 5.0) supplied by the instrument vendor. The titrating microcalorimeter consisted of a sample and reference cell held in an adiabatic enclosure. The calorimeter was calibrated by comparing the measured areas of applied heat pulses to known values. Known and experimentally measured values agreed to within 2%.
# The probe was prepared in DMSO at 10 mM and diluted to 500 μM in PBS. the probe and HSA solutions were degassed prior to analysis. The reference cell was filled with PBS. A 20 μM solution of HSA in PBS was placed in the 1.37 mL sample cell and the probe (0.5 mM) was held in a 250 μL syringe. Thirty injections (6 μL each) of the probe were made by a computer-controlled stepper motor into the sample cell filled with HSA held at 37° C. The syringe stir rate was 400 rpm. The heat adsorbed or released with each injection was measured by a thermoelectric device connected to a Microcal nanovolt preamplifier. Titration isotherms for the binding interactions were comprised of the differential heat flow for each injection. Heats of dilution obtained by injecting ligand into dialysate buffer were minor but were subtracted prior to fitting the data. Isotherms fit well to a single site model (Wiseman, T., et. al. Anal. Biochem (1989) 179, 131-137) using an iterative nonlinear least-squares algorithm included with the instrument.
# All parameters were floated during the iterations until a minimum %^2 was obtained between experimental and fit data. […] The change in free energy (ΔG) and change in entropy (ΔS) were determined using the Gibbs' free energy equation. […]
# [2] = biological target: HSA (fraction V) (Homo sapiens, UniProt P02768); assay: biochemical
structure (smiles),measurement,setting,value
"Cn1c(/C=C/c2ccc(C#N)cc2C(=O)O)cc2ccccc21 [the probe, 5-cyano-2-[(E)-2-(1-methyl-1H-indol-2-yl)ethenyl]benzoic acid]",enthalpy change for the interaction,[1],-10.4 kcal/M
same,Kd,[1]; read-out: average affinity for all binding interactions,15 µM
same,molecules of the probe bound per HSA (stoichiometry),[1]; single-site model,approximately 2
same,Kd,[2],0.39 µM
